For orientation: pKa means the pH at which an ionisable group is half protonated. One may read the bioavailability as the share of a dose that reaches the circulation, judged against a reference dose that is usually intravenous. The low end stands for poor availability, the high end for good availability. By logD is commonly meant the decadic logarithm of the distribution of all forms, ionised or not, between an organic phase and buffer at a given pH. A low value points to lower lipophilicity.

The conditions of series [1]: octanol/water.
Series [2] in a line: physchem.
Series [3] in a line: clinical. The following applies: human, in vivo, po.
For series [4] the following is noted: octanol/water. This is another data set of the same source.
The conditions of series [5]: octanol/water. The source holds these as a separate data set.
For series [6] the following is noted: octanol/water. The source holds these as a separate data set.
The nature of series [7]: clinical. The following applies: human, in vivo, po. The source holds these as a separate data set.
The nature of series [8]: clinical. The following applies: human, in vivo, po. This is another data set of the same source.
Series [9] can be described thus: physchem. The following applies: octanol/water, pH 6.5.

Consider `CC(C)NCC(O)COc1ccc(CCOCC2CC2)cc1` (configuration not stated) [BETAXOLOL], for which, in [1], the “delta logD” value is -0.9. Moreover, the pKa in the series “physchem [2]” is 9.4. Moreover, the bioavailability in “clinical [3]” (F) is > 80%. For the same molecule, the logD in [4] (pH 6.5) is -0.07.

As for `O=C(O)CCCc1ccc(N(CCCl)CCCl)cc1` [CHLORAMBUCIL], the “delta logD” value in series [1] is 0.82. Further, the bioavailability in “clinical [3]” is > 80%. In series [4], this molecule gave a logD of 2.29.

`COc1ccc2c3c1O[C@H]1[C@@H](O)C=C[C@H]4[C@@H](C2)N(C)CC[C@@]341` [CODEINE]: the “delta logD” value in series [1] was -0.8. Besides, the bioavailability in “clinical [3]” was found to be 79%. Also, the logD in [4] is -0.28.

For the molecule `CC[C@@H](CO)NCCN[C@@H](CC)CO` [ETHAMBUTOL], the logD in series [5] is recorded as -4.02. In the series “physchem [2]”, this molecule yielded a pKa of 9.5. The “delta logD” value in [6] is -0.9. In addition, the bioavailability in “clinical [7]” is 79%.

In “clinical [8]”, `CC(C)n1c(/C=C/C(O)CC(O)CC(=O)O)c(-c2ccc(F)cc2)c2ccccc21` (configuration not stated) [FLUVASTATIN] returned a bioavailability of 49%. This molecule also came in with a pKa in “physchem [2]” of 4.5. Further, in “physchem [9]”, the logD was determined as 1.42. Moreover, the “delta logD” value in series [6] worked out at 0.9.

Molecule `O=C(NC1CCN(CCc2c[nH]c3ccccc23)CC1)c1ccccc1` [INDORAMIN] had a bioavailability in the series “clinical [8]” of 49%. The pKa in the series “physchem [2]” is 7.7. Besides, the logD in “physchem [9]” is 1.56. Besides, the “delta logD” value in series [6] was -0.75.

Consider `CC(CCc1ccccc1)NCC(O)c1ccc(O)c(C(N)=O)c1` (configuration not stated) [LABETALOL], for which the bioavailability in the series “clinical [8]” is 49%. For the same molecule, in “physchem [2]”, the pKa was determined as 9.3. For the same molecule, the logD in the series “physchem [9]” is 0.35. In addition, the “delta logD” value in series [6] is recorded as -0.9.

Consider `CN(Cc1cnc2nc(N)nc(N)c2n1)c1ccc(C(=O)N[C@@H](CCC(=O)O)C(=O)O)cc1` [METHOTREXATE], for which the pH-dependent lipophilicity (logD) in series [5] was -4.55. In addition, the “delta logD” value in [6] was found to be 0.9. In addition, the bioavailability in the series “clinical [7]” was determined as 79%.

On to `Cc1ncc2n1-c1ccc(Cl)cc1C(c1ccccc1F)=NC2` [MIDAZOLAM], for which the bioavailability in “clinical [8]” came to 49%. The same molecule had a pKa in the series “physchem [2]” of 6.1. In addition, in the series “physchem [9]”, the logD stood at 1.37. Moreover, in series [6], the “delta logD” value is -0.14.

With `CCOC(=O)Nc1ccc2c(c1)N(C(=O)CCN1CCOCC1)c1ccccc1S2` [MORICIZINE], the bioavailability in “clinical [8]” worked out at 49%. Moreover, the pKa in the series “physchem [2]” came to 6.4. This molecule showed a logD in the series “physchem [9]” of 2.73. Moreover, the “delta logD” value in series [6] is given as -0.21.

`CC(C)(C)NCC(O)COc1cccc2c1CC(O)C(O)C2` (configuration not stated) [NADOLOL] showed a bioavailability in “clinical [8]” of 49%. Also, in [5], the logD is listed as -2.46. The molecule also showed a pKa in the series “physchem [2]” of 9.7. In series [6], the “delta logD” value is given as -0.9.

Consider `CCOC(=O)C1=C(C)NC(C)=C(C(=O)OC)C1c1cccc([N+](=O)[O-])c1` (configuration not stated) [NITRENDIPINE], for which, in [1], the “delta logD” value turned out to be 0. The bioavailability in “clinical [3]” (F) is < 20%. The molecule further came in with a logD in series [4] of 0.97.

`C=CCOc1ccccc1OCC(O)CNC(C)C` (configuration not stated) [OXPRENOLOL] came in with a bioavailability in the series “clinical [8]” of 49%. Besides, the logD in series [5] (pH 6.5) is reported as -0.72. Moreover, the pKa in “physchem [2]” was found to be 9.3. In addition, the “delta logD” value in [6] is recorded as -0.9.

The molecule `OCCN1CCN(CCCN2c3ccccc3Sc3ccc(Cl)cc32)CC1` [PERPHENAZINE] registered a logD in series [5] of 2.88. Moreover, in series [6], the “delta logD” value is on record as -0.77. In “clinical [7]”, this molecule registered a bioavailability of 79%.

Regarding `CC(C)NC[C@H](O)COc1ccc(O)cc1` [PRENALTEROL], the bioavailability in “clinical [8]” was 49%. Besides, in the series “physchem [2]”, the pKa turned out to be 9.2. For the same molecule, the logD in the series “physchem [9]” is -1.61. In [6], the “delta logD” value is recorded as -0.89.

`O=C(c1ccc(OCCN2CCCCC2)cc1)c1c(-c2ccc(O)cc2)sc2cc(O)ccc12` [RALOXIFENE]: the “delta logD” value in [1] is recorded as -0.9. This molecule also displayed a pKa in the series “physchem [2]” of 9. Further, in “clinical [3]” (F), the bioavailability was < 20%. Also, the logD in [4] (pH 6.5) came out at 1.08.

In the case of `CNC(=C[N+](=O)[O-])NCCSCc1ccc(CN(C)C)o1` [RANITIDINE], the “delta logD” value in [1] is listed as -0.84. This molecule also returned a bioavailability in “clinical [3]” (F) of 79%. In [4] (pH 6.5), the logD is recorded as -1.44.

The record behind these values is ChEMBL document CHEMBL1133765, “QSAR model for drug human oral bioavailability” (J Med Chem, 2000).
